Data on 14 compounds can be found in patent publication US20240391954A1, “MC4R AGONIST PEPTIDES” (The Regents of the University of Michigan, priority 2021, published 2024).

Assay [1] has as its target T1, human MC3R (Homo sapiens, UniProt P41968).
T1 construct: expressed in transfected cells; host or cells: HEK-293 cells stably expressing the GScAMP22F split-luciferase cAMP sensor (parent reporter line from Promega); MC3R clone generated in-house, G418 selection
The assay can be described thus: split-luciferase cAMP sensor assay, agonist mode (measurement window 1), hMC3R. The format is cell-based. As to conditions: for Emax: read-out: MC3R cAMP % max activation; for EC50: read-out: MC3R cAMP EC50. In short, it runs like this: (§1)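 EC50 values come from a four-parameter variable-slope fit of luminescence in measurement window 1, capturing direct peptide effects on receptor-expressing cells with a cAMP22f luciferase sensor. Cells were preloaded with 4% D-luciferin, serum-free medium; 20 μM forskolin normalized for cell number and transducer efficiency.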

Assay [2] concerns the target T2, human MC4R (Homo sapiens, UniProt P32245).
T2 construct: host or cells: HEK-293 cells stably expressing the GScAMP22F split-luciferase cAMP sensor and hMC4R, G418 selection
The assay can be described thus: split-luciferase cAMP sensor assay, agonist mode (measurement window 1), hMC4R. The format is cell-based. Particulars: for Emax: read-out: MC4R cAMP % max activation; for EC50: read-out: MC4R cAMP EC50. In outline: as §1

Where [3] appears, read: % maximal activation, agonist mode.
Where [4] appears, read: agonist mode, hMC3R stable cell line.
[5] abbreviates: agonist mode, hMC4R stable cell line.

For orientation: EC50 means the concentration at which the effect is half-maximal.

Where two headings read alike, the source gives them in different places. Positions of bridges follow the written chain, without caps; N, C: chain ends. Non-standard residues stand in square brackets, D forms with d. Residues, ends and D or L forms follow the SMILES beside them. Phe(4-Br) = N[C@@H](Cc1ccc(Br)cc1)C(=O)O; dPhe(4-Br) = N[C@H](Cc1ccc(Br)cc1)C(=O)O; dPhe(4-I) = N[C@H](Cc1ccc(I)cc1)C(=O)O; 2Nal = N[C@@H](Cc1ccc2ccccc2c1)C(=O)O; d2Nal = N[C@H](Cc1ccc2ccccc2c1)C(=O)O; d(αMeF) = C[C@@](N)(Cc1ccccc1)C(=O)O; Nle = CCCC[C@H](N)C(=O)O

T2 sequence (P32245 whole entry): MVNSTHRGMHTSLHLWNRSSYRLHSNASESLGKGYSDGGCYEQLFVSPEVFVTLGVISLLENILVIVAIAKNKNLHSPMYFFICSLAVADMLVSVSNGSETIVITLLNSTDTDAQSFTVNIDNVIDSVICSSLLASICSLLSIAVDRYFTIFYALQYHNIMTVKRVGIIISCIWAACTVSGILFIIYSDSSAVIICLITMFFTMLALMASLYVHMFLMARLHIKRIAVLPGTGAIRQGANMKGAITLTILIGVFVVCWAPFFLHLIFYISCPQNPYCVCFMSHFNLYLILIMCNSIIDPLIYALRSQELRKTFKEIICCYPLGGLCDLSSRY
T1 sequence (P41968 whole entry): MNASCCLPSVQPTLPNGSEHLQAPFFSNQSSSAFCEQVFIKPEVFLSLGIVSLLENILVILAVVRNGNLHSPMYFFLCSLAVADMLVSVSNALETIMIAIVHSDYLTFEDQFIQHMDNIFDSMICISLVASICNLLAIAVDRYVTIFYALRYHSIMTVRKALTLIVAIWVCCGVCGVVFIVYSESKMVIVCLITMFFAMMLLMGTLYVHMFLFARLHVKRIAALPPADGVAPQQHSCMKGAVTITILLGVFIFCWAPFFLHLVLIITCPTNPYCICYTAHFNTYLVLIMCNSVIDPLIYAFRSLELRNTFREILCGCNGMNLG

As for `CCCC[C@H](NC(C)=O)C(=O)N[C@H]1CSSC[C@@H](C(=O)N[C@@H](CCCNC(=N)N)C(=O)N[C@@H](Cc2ccccc2)C(=O)NCC(N)=O)NC(=O)[C@@H](Cc2c[nH]c3ccccc23)NC(=O)[C@H](CCCNC(=N)N)NC(=O)[C@H](Cc2ccc3ccccc3c2)NC(=O)[C@H](Cc2c[nH]cn2)NC1=O` [CTX-2128, Nle-cyclo(Cys-His-Nal(2′)-Arg-D-Trp-Cys)-Arg-Phe-Gly] (Ac-[Nle]CH[2Nal]R[dW]CRFG-NH2; disulfide 2-7 (inferred)), the Emax in assay [1] (setting [3]) was 99%; in assay [2] (setting [3]) it was 87%. Further, in assay [1] (MC4R versus MC3R), the “MC4R selectivity vs MC3R” value is recorded as 0.01.

`CC(=O)N[C@@H](CCCNC(=N)N)C(=O)N[C@H]1CSSC[C@@H](C(=O)N[C@@H](CCCCN)C(N)=O)NC(=O)[C@@H](Cc2c[nH]c3ccccc23)NC(=O)[C@H](CCCNC(=N)N)NC(=O)[C@@H](Cc2ccc(Br)cc2)NC(=O)[C@H](CCCNC(=N)N)NC(=O)[C@@H](C)NC1=O` [CTX-1218, Arg-cyclo(Cys-D-Ala-Arg-D-Phe(4-Br)-Arg-D-Trp-Cys)-Lys] (Ac-RC[dA]R[dPhe(4-Br)]R[dW]CK-NH2; disulfide 2-8): the Emax amounted to 16% in assay [1] (setting [4]) and 77% in assay [2] (setting [5]). Besides, the EC50 in assay [1] (agonist mode, hMC3R stable cell line, unit inferred) worked out at 4 nM; in assay [2] (agonist mode, hMC4R stable cell line, unit inferred), 2.2 nM. The “MC4R selectivity vs MC1R” value in assay [2] came to 1. The “MC4R selectivity vs MC3R” value in assay [2] is given as 1.85.

On to `CC(=O)N[C@@H](CCCNC(=N)N)C(=O)N[C@H]1CSSC[C@@H](C(N)=O)NC(=O)[C@@H](Cc2c[nH]c3ccccc23)NC(=O)[C@@H](CCCNC(=N)N)NC(=O)[C@@H](Cc2ccc(Br)cc2)NC(=O)[C@H](CCCNC(=N)N)NC(=O)[C@@H](C)NC1=O` [CTX-1252, Arg-cyclo(Cys-D-Ala-Arg-D-Phe(4-Br)-D-Arg-D-Trp-Cys)] (Ac-RC[dA]R[dPhe(4-Br)][dR][dW]C-NH2; disulfide 2-8 (inferred)), for which, in assay [1] (setting [4]), the Emax turned out to be 1.1%. Also, in assay [2], the “MC4R selectivity vs MC1R” value was determined as 0.04 and the “MC4R selectivity vs MC3R” value came out at 0.06. The Emax in assay [2] (setting [5]) turned out to be 4.4%.

For `CCCC[C@H](NC(=O)[C@H](CCCNC(=N)N)NC(C)=O)C(=O)N[C@H]1CSSC[C@@H](C(N)=O)NC(=O)[C@H](Cc2c[nH]c3ccccc23)NC(=O)[C@H](CCCNC(=N)N)NC(=O)[C@@H](Cc2ccc(Br)cc2)NC(=O)[C@H](CCCNC(=N)N)NC1=O` [CTX-1612, Arg-Nle-cyclo(Cys-Arg-D-Phe(4-Br)-Arg-Trp-Cys)] (Ac-R[Nle]CR[dPhe(4-Br)]RWC-NH2; disulfide 3-8 (inferred)), in assay [1] (setting [4]), the Emax worked out at 27% and the EC50 turned out to be 4.5 nM. For the same compound, in assay [2], the “MC4R selectivity vs MC1R” value is 0.09 and the “MC4R selectivity vs MC3R” value is 2.27. Also, in assay [2] (setting [5]), the Emax was determined as 25% and the EC50 came out at 2 nM.

`CC(=O)N[C@@H](CCCNC(=N)N)C(=O)N[C@H]1CSSC[C@@H](C(N)=O)NC(=O)[C@@H](Cc2c[nH]c3ccccc23)NC(=O)[C@H](CCCNC(=N)N)NC(=O)[C@@H](Cc2ccccc2)NC(=O)[C@H](Cc2c[nH]cn2)NC(=O)[C@@H](C)NC1=O` [CTX-1262, Arg-cyclo(Cys-D-Ala-His-D-Phe-Arg-D-Trp-Cys)]: the Emax amounted to 65% in assay [1] (setting [3]) and 88% in assay [2] (setting [3]).

For `CCCC[C@H](NC(=O)[C@H](CCCNC(=N)N)NC(C)=O)C(=O)N[C@H]1CSSC[C@@H](C(N)=O)NC(=O)[C@@H](Cc2c[nH]c3ccccc23)NC(=O)[C@H](CCCNC(=N)N)NC(=O)[C@@H](Cc2ccc(I)cc2)NC(=O)[C@H](Cc2c[nH]cn2)NC1=O` [CTX-1233, Arg-Nle-cyclo(Cys-His-D-Phe(4-I)-Arg-D-Trp-Cys)] (Ac-R[Nle]CH[dPhe(4-I)]R[dW]C-NH2; disulfide 3-8 (inferred)), in assay [1] (setting [4]), the Emax is 22% and the EC50 came to 4.1 nM. In addition, in assay [2], the “MC4R selectivity vs MC1R” value was 0.26 and the “MC4R selectivity vs MC3R” value came to 1.88. In addition, in assay [2] (setting [5]), the Emax was found to be 16% and the half-maximal effective concentration (EC50) was determined as 2.2 nM.

Turning to `CC(=O)N[C@@H](CCCNC(=N)N)C(=O)N[C@H]1CSSC[C@@H](C(N)=O)NC(=O)[C@@H](Cc2c[nH]c3ccccc23)NC(=O)[C@H](CCCNC(=N)N)NC(=O)[C@@](C)(Cc2ccccc2)NC(=O)[C@H](CCCNC(=N)N)NC(=O)[C@@H](C)NC1=O` [CTX-1279, Arg-cyclo(Cys-D-Ala-Arg-a-Me-D-Phe-Arg-D-Trp-Cys)] (Ac-RC[dA]R[d(αMeF)]R[dW]C-NH2; disulfide 2-8), the Emax in assay [1] (setting [4]) came out at 20%. Also, in assay [2], the “MC4R selectivity vs MC1R” value turned out to be 0.83 and the “MC4R selectivity vs MC3R” value is 0.61. Further, in assay [2] (setting [5]), the Emax came to 79% and the EC50 came to 72 nM.

As to `CCCC[C@H](NC(=O)[C@H](CCCNC(=N)N)NC(C)=O)C(=O)N[C@H]1CSSC[C@@H](C(N)=O)NC(=O)[C@H](Cc2ccccc2)NC(=O)[C@H](CCCNC(=N)N)NC(=O)[C@@H](Cc2ccc(Br)cc2)NC(=O)[C@H](CCCNC(=N)N)NC1=O` [CTX-1623, Arg-Nle-cyclo(Cys-Arg-D-Phe(4-Br)-Arg-Phe-Cys)] (Ac-R[Nle]CR[dPhe(4-Br)]RFC-NH2; disulfide 3-8), the Emax came out at 62% in assay [1] (setting [3]) and 73% in assay [2] (setting [3]).

On to `CCCC[C@H](NC(=O)[C@H](CCCNC(=N)N)NC(C)=O)C(=O)N[C@H]1CSSC[C@@H](C(N)=O)NC(=O)[C@@H](Cc2c[nH]c3ccccc23)NC(=O)[C@H](CCCNC(=N)N)NC(=O)[C@@H](Cc2ccc(Br)cc2)NC(=O)[C@H](Cc2c[nH]cn2)NC1=O` [CTX-1231, Arg-Nle-cyclo(Cys-His-D-Phe(4-Br)-Arg-D-Trp-Cys)] (Ac-R[Nle]CH[dPhe(4-Br)]R[dW]C-NH2; disulfide 3-8 (inferred)), for which the Emax in assay [1] (setting [4]) came to 59%. Besides, in assay [2], the “MC4R selectivity vs MC1R” value came to 0.19 and the “MC4R selectivity vs MC3R” value came out at 3.04. Also, in assay [2] (setting [5]), the Emax amounted to 64% and the EC50 amounted to 2.3 nM.

As for `CC(=O)N[C@@H](CCCNC(=N)N)C(=O)N[C@H]1CSSC[C@@H](C(N)=O)NC(=O)[C@@H](Cc2ccc3ccccc3c2)NC(=O)[C@H](CCCNC(=N)N)NC(=O)[C@@H](Cc2ccc(Br)cc2)NC(=O)[C@H](CCCNC(=N)N)NC(=O)[C@@H](C)NC1=O` [CTX-1254, Arg-cyclo(Cys-D-Ala-Arg-D-Phe(4-Br)-Arg-D-Nal(2′)-Cys)] (Ac-RC[dA]R[dPhe(4-Br)]R[d2Nal]C-NH2; disulfide 2-8), in assay [1] (setting [4]), the Emax came to 5.5%. In assay [2], the “MC4R selectivity vs MC1R” value was found to be 0.26 and the “MC4R selectivity vs MC3R” value is given as 2.19. For the same compound, in assay [2] (setting [5]), the Emax was found to be 22%.

As for `CC(=O)N[C@@H](CCCNC(=N)N)C(=O)N[C@H]1CSSC[C@@H](C(N)=O)NC(=O)[C@@H](Cc2c[nH]c3ccccc23)NC(=O)[C@H](CCCNC(=N)N)NC(=O)[C@H](Cc2ccc(Br)cc2)NC(=O)[C@H](CCCNC(=N)N)NC(=O)[C@@H](C)NC1=O` [CTX-1215, Arg-cyclo(Cys-D-Ala-Arg-Phe(4-Br)-Arg-D-Trp-Cys)] (Ac-RC[dA]R[Phe(4-Br)]R[dW]C-NH2; disulfide 2-8 (inferred)), in assay [1] (setting [4]), the Emax was 2.1% and the EC50 worked out at 27 nM. In assay [2], the “MC4R selectivity vs MC1R” value came to 0.07 and the “MC4R selectivity vs MC3R” value was found to be 0.05. Besides, the Emax in assay [2] (setting [5]) came out at 56%.

For the compound `CC(=O)N[C@@H](CCCNC(=N)N)C(=O)N[C@H]1CSSC[C@@H](C(N)=O)NC(=O)[C@H](Cc2c[nH]c3ccccc23)NC(=O)[C@H](CCCNC(=N)N)NC(=O)[C@H](Cc2ccc(Br)cc2)NC(=O)[C@H](CCCNC(=N)N)NC(=O)[C@@H](C)NC1=O` [CTX-1212] (Ac-RC[dA]R[Phe(4-Br)]RWC-NH2; disulfide 2-8), in assay [1] (setting [4]), the Emax amounted to 0.1% and the EC50 was 28 nM. In addition, in assay [2], the “MC4R selectivity vs MC1R” value amounted to 0.07 and the “MC4R selectivity vs MC3R” value is reported as 0.07. The Emax in assay [2] (setting [5]) was 55%.

Turning to `CCCC[C@H](NC(=O)[C@H](CCCNC(=N)N)NC(C)=O)C(=O)N[C@H]1CSSC[C@@H](C(N)=O)NC(=O)[C@H](Cc2c[nH]c3ccccc23)NC(=O)[C@H](CCCNC(=N)N)NC(=O)[C@@H](Cc2ccc(Br)cc2)NC(=O)[C@H](CCCNC(=N)N)NC1=O` [CTX-1230, Arg-Nle-cyclo(Cys-Arg-D-Phe(4-Br)-Arg-Trp-Cys)] (Ac-R[Nle]CR[dPhe(4-Br)]RWC-NH2; disulfide 3-8), in assay [1] (setting [4]), the “MC3R cAMP % max activation” value is “(23%)” and the EC50 worked out at 3.9 nM. Besides, in assay [2], the “MC4R selectivity vs MC1R” value is on record as 0.18 and the “MC4R selectivity vs MC3R” value came to 1.95. Further, in assay [2] (setting [5]), the “MC4R cAMP % max activation” value is “(27%)” and the EC50 amounted to 1.4 nM.

Regarding `CC(=O)N[C@@H](CCCNC(=N)N)C(=O)N[C@H]1CSSC[C@@H](C(N)=O)NC(=O)[C@H](Cc2c[nH]c3ccccc23)NC(=O)[C@H](CCCNC(=N)N)NC(=O)[C@@H](Cc2c[nH]c3ccccc23)NC(=O)[C@H](CCCNC(=N)N)NC(=O)[C@@H](C)NC1=O` [CTX-1274, Arg-cyclo(Cys-D-Ala-Arg-D-Trp-Arg-Trp-Cys)] (Ac-RC[dA]R[dW]RWC-NH2; disulfide 2-8), the Emax in assay [1] (setting [4]) was found to be 5.4%. In assay [2], the “MC4R selectivity vs MC1R” value was 0.19 and the “MC4R selectivity vs MC3R” value came to 0.12. Moreover, in assay [2] (setting [5]), the Emax turned out to be 77% and the EC50 is 1400 nM.
